Laboratory results as given in ChEMBL document CHEMBL1157539, “Thousands of chemical starting points for antimalarial lead identification” (Nature, 2010).

The compounds below were run on Plasmodium falciparum (assay: GSK_TCMDC: Inhibition of Plasmodium falciparum 3D7 in whole erythrocytes, using parasite LDH activity as an index of growth.). Details: not given.
Format: functional, organism-based

SMILES | XC50 [µM]
CN(Cc1cnc2nc(N)nc(N)c2n1)c1ccc(C(=O)N[C@@H](CCC(=O)O)C(=O)O)cc1 [METHOTREXATE] | 0.178
O=C(/C=C/c1ccc(Cl)c(Cl)c1)NCCCCCN1CCC(c2c[nH]c3ccccc23)C(O)C1 (centres undefined) | 0.819

Same assay, conditions: Plasmodium falciparum, 3D7

SMILES | XC50 [µM]
Clc1ccc2c(NN=Cc3cccnc3)ccnc2c1 | 0.696
COc1cccc(CCNCCCCCCNCCc2ccc(Cl)cc2)c1 | 1.01
COc1cccc(-c2nc3c(N4CCN(c5ccncc5)CC4)cccc3n2CC2CCCCCN2)n1 (centres undefined) | 1.06
O=C(NC1CCC(CN2CCC(c3c[nH]c4ccccc34)CC2)CC1)c1cn(Cc2ccccc2)c2ccccc12 (centres undefined) | 1.13
C=CCc1cc(C)ccc1OCCCON1C(N)=NC(N)=NC1(C)C | 0.0032
COc1ccc(C(=O)Nc2ccc3oc(-c4ccc(C(F)(F)F)cc4)cc3c2)cc1CCCN(C)C | 0.698
O=C(Nc1ccc(C(F)(F)F)cc1)NC1CCN(c2ccnc3ccccc23)C1 (centres undefined) | 0.0875
O=C(NCCCN1CCC(N2CCCCC2)CC1)c1ccc(N2CCOc3ccccc32)s1 | 0.732
CS(=O)(=O)CCNCc1cccc(-c2ccc3c(Nc4ccc(Oc5ccccc5)cc4)ccnc3c2)c1 | 0.691
FC(F)(F)c1ccc2[nH]c(-c3ccc(-c4cccc(CN5CCN(c6ccncc6)CC5)c4)cc3)nc2c1 | 0.118
Clc1ccc(CNCCCCCCCNCc2ccc(Cl)c(Cl)c2)cc1Cl | 0.372
COC(=O)COc1cc(C(=O)NCCCCN2CCC(c3ccc4c(c3OC)CCCC4)CC2)ccc1-c1ccc(Cl)cc1 | 0.257
COc1ccc(OCCCON)cc1 | 0.167
CN(C)c1cccc(-c2cnc3ccc(NCc4cccc(Cl)c4)nn23)c1 | 0.7
CC(C)CC(NC(=O)c1cccc(OCCN2CCOCC2)c1)C(=O)NC(/C=N/NC(=O)c1ccccc1)CCc1ccccc1 (centres undefined) | 0.251
COc1ccc(-c2ccc(NC(=O)c3ccc(C#N)cc3)cc2)cc1CN1CCCN(C)CC1 | 0.152
c1ccc(CN2CCC(NCc3ccccc3-c3ccc(CNC4CCCC4)cc3)CC2)cc1 | 0.912
Cc1cccc(Cl)c1Nc1nnc(-c2cccc(C(=O)NC[C@@H]3CC[C@H]4C[C@@H]3C4(C)C)c2)o1 | 0.273
CCNc1cc(C(=O)N[C@@H](Cc2ccccc2)[C@H](O)CN[C@H](C)c2ccccc2)cc(N2CCCC2=O)c1 | 0.0543

SMILES | XC50 [µM]
COc1cccc(OC2CCN(C(=O)c3ccc(-c4ccc(N5CCCC5=O)cc4C)cc3)CC2)c1 | 1.01
COc1ccc(CNC2CCN(C)CC2)cc1-c1ccc(S(=O)(=O)NC2CCC2)c(C)c1 | 0.993
CN(Cc1cnc2nc(N)nc(N)c2n1)c1ccc(C(=O)N[C@@H](CCC(=O)O)C(=O)O)cc1 [METHOTREXATE] | 0.1
CCCc1cc(NC2CCN(C)CC2)nc(Nc2cccc(OC)c2)n1 | 0.765
Cc1ccc(Cl)cc1N1CCN(CCCNC(=O)C2CCN(c3nc4ccccc4[nH]3)CC2)CC1 | 0.895
O=C(/C=C/c1ccc(Cl)c(Cl)c1)NCCCCCN1CCC(c2c[nH]c3ccccc23)C(O)C1 (centres undefined) | 0.795
COC(=O)c1ccc(NC(=O)Nc2cccc(CCNCc3ccccc3)c2)cc1 | 0.867
CC(C)(C)c1ccc(N2C(N)=NC(N)=NC2(C)C)cc1Cl | 0.00656
NC(=O)c1ccc(C(=O)Nc2cccc(-c3ccc(-c4nc5cc(C(F)(F)F)ccc5[nH]4)cc3)c2)cc1 | 0.514
Cc1nc(C)c(-c2ccc(Cl)cc2Cl)c(O)c1Br | 1.01
Cc1[nH]c(C)c(-c2csc3ccccc23)c(=O)c1Cl | 1.02
O=C(CCCCCNC(=O)c1ccc(O)c(-c2ccc(Cl)c(Cl)c2)c1)NC1CCCc2ccccc21 (centres undefined) | 0.759
CS(=O)(=O)CCNCc1cc(-c2cc3ncnc(Nc4ccc(OCc5cccc(F)c5)c(Cl)c4)c3s2)cs1 | 0.326
O=C1OC2(CN1CC1CCN(Cc3ccc(O)cc3Cl)C1)c1ccccc1-c1ccccc12 (centres undefined) | 1.17
CC(C)c1ccc(NC(=O)c2cccc(CN3CCCN(Cc4cccc(O)c4)CC3)c2)cc1 | 0.772
CCN(CC)CCN(Cc1ccc(-c2ccc(C(F)(F)F)cc2)cc1)C(=O)Cn1c(CCc2cccc(F)c2F)nc(=O)c2ccc(C(F)(F)F)cc21 | 0.783
O=C(/C=C/c1cccc(Cl)c1)Nc1ccc2nc(CN3CCCC3)ccc2c1 | 0.255
c1ccc(COc2ccc(Nc3ncnc4cnc(-c5ccc(CNc6cccnc6)o5)cc34)cc2)cc1 | 0.857
